Reference: the SangsterLogP compilation

Compound | logP
COc1cccc(COCC(Cn2cncn2)c2ccc(Cl)cc2Cl)c1 (stereo not drawn) | 3.85
Clc1ccc(C(COCc2ccc3ccccc3c2)Cn2cncn2)c(Cl)c1 (stereo not drawn) | 4.48
CC(C)=CCOCC(Cn1cncn1)c1ccc(Cl)cc1Cl (stereo not drawn) | 3.91
Clc1ccc(C(COCC=Cc2ccccc2)Cn2cncn2)c(Cl)c1 (stereo not drawn) | 4.21
Clc1ccc(C(COCc2cccs2)Cn2cncn2)c(Cl)c1 (stereo not drawn) | 4.42
Clc1ccc(C(COCc2ccc(OCc3ccccc3)cc2)Cn2cncn2)c(Cl)c1 (stereo not drawn) | 4.46
C=C(Cl)COCC(Cn1cncn1)c1ccc(Cl)cc1Cl (stereo not drawn) | 3.7
Clc1ccc(COCC(Cn2cncn2)c2ccc(Cl)cc2Cl)c(Cl)c1 (stereo not drawn) | 4.71
Clc1ccc(C(COCc2cccc(Oc3ccccc3)c2)Cn2cncn2)c(Cl)c1 (stereo not drawn) | 4.58
Clc1ccc(C(COCc2ccccc2)Cn2cncn2)c(Cl)c1 (stereo not drawn) | 3.83
C=C(C)COCC(Cn1cncn1)c1ccc(Cl)cc1Cl (stereo not drawn) | 3.72
Clc1ccc(C(COCCCc2ccccc2)Cn2cncn2)c(Cl)c1 (stereo not drawn) | 4.77
CC(C)(C)c1ccc(COCC(Cn2cncn2)c2ccc(Cl)cc2Cl)cc1 (stereo not drawn) | 4.84
C#CCOCC(Cn1cncn1)c1ccc(Cl)cc1Cl (stereo not drawn) | 2.93
Clc1ccc(C(COCc2ccc(-c3ccccc3)cc2)Cn2cncn2)c(Cl)c1 (stereo not drawn) | 4.29
O=[N+]([O-])c1ccc(COCC(Cn2cncn2)c2ccc(Cl)cc2Cl)cc1 (stereo not drawn) | 3.72
C=CCOCC(Cn1cncn1)c1ccc(Cl)cc1Cl (stereo not drawn) | 3.49
N#CCCOCC(Cn1cncn1)c1ccc(Cl)cc1Cl (stereo not drawn) | 0.36
